These results are taken from patent publication US10780092B2, “Fused pyrazine derivatives useful as soluble guanylate cyclase stimulators” (Merck Sharp & Dohme Corp., priority 2016, dated 2020).

The target of test [1] is human recombinant sGC enzyme (Homo sapiens (Human), UniProt Q02108+Q02153). The experiment in a line: SEC competition binding assay with [3H] Compound B radioligand. As to conditions: displacement of 1.6 nM [3H] Compound B, 24 h at 37° C. Summed up:
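Recombinant human sGC incubated with 1.6 nM [3H] Compound B and test compounds for 24 h at 37° C. Buffer: 50 mM triethanolamine pH 7.4, 3 mM MgCl2, 0.025% BSA, 2 mM DTT, 300 μM DETA/NO, 400 μM GTP, 1% DMSO. Bound ligand separated by gel filtration and counted by scintillation; non-specific binding with 1 μM Compound B; Ki from one-site fit.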

The next test deals with sGC α1/β1 heterodimer (Homo sapiens (Human), UniProt Q02108+Q02153). The experiment in a line: Cell-based sGC functional assay (CASA assay), cGMP by HTRF. As to conditions: CHO-K1/sGC cells; for Emax: CHO-K1, cGMP production as percentage of maximum of compound A (set to 100%), read-out: % Activation; for EC50: inflection point of cGMP production, 4P fit, read-out: IP. Summed up: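 CHO-K1 cells stably expressing human sGC α1/β1, with 0.5 mM IBMX, pre-incubated ±1 μM DETA-NO 30 min at 25° C, then compound 1 hr at 37° C (2.5% DMSO). cGMP by HTRF; activation as % of reference activator maximum, 4P fit giving inflection point and maximum […].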

The test system of test [2] is hypoxia-induced pulmonary hypertension in rat. The test can be described thus: Acute efficacy in hypoxia-induced pulmonary hypertension in rat following intratracheal (IT) administration. The test is classed as in vivo. Conditions: decrease in SBP at dose giving decrease in PAP ≥15 mmHg. The source says: Acute Efficacy in Hypoxia-Induced Pulmonary Hypertension in Rat Following Intratracheal (IT) Administration Charles River Sprague-Dawley (CD) male rats weighing approximately 350 g were implanted with HD-S21 dual pressure telemetry transmitters (Data Sciences International (DSI)) into the pulmonary artery and femoral artery. This transmitter enables simultaneous measurement of both pulmonary and systemic hemodynamic parameters in the same animal. After a 7-10 day post-operative recovery period, animals were subjected to a normobaric hypoxic (10% oxygen) environment using a Higher Peak Mountain Air Generator (MAG-10) connected to a modified rodent cage via a fitted inlet port. Oxygen (at 10%), temperature, humidity, and CO2 were controlled within normal range and animals were maintained on a 12 hour light-dark cycle with ad libitum access to food and water. After two weeks exposure to 10% O2 hypoxic environment, systolic pulmonary arterial pressure readings increased from ˜25 mmHg to greater than 50 mmHg. Using a 48 hour baseline average, animals with readings between 50-110 mmHg (standard deviation of less than 10 mmHg) and minimal changes in systolic systemic blood pressure were enrolled for study. Animals were utilized for up to 2 studies per week for 4 weeks with a minimum of 2 days washout between doses of test agent. Compound or vehicle was administered intra-tracheally under light isoflurane anesthesia (5% in oxygen; flow rate 2.0 L/min for 3 minutes). Once anesthetized, rats were placed on an angled intubation stand in supine position and the trachea visualized using a small laryngoscope. Animals then received either 0.5 mL/kg of vehicle or 0.5 mL/kg vehicle containing compound intra-tracheally delivered via microsprayer by use of a Penn-Century Microsprayer® needle 3″ (Model IA-1B-GP) attached to a 1 mL high pressure syringe (Penn Century-Model B—SYR-PL1000) (Penn-Century, Philadelphia, Pa.). The Microsprayer® tip was inserted into the trachea up to the point at which the bend in the needle is close to the tip of the snout, which positions the tip of the Microsprayer® in front of the carina (bifurcation of trachea at the bronchi). After dose delivery the animal is placed on its back in the home cage for recovery. Hemodynamic measurements were continuously recorded and readings consolidated to hourly moving averages. Each animal received a vehicle on Day 1 followed by vehicle or test agent on Day 2. Change from vehicle baseline was calculated by subtracting the hourly Day 1 vehicle response from the hourly Day 2 response and treatment group data was expressed as mean±SEM. Decreases of systolic blood pressure (SBP) and systolic pulmonary arterial pressure (PAP) were measured at a particular IT dose (mpk milligrams per kilogram) for the following Example compounds. Compounds in the Table 13 achieved a minimum decrease in PAP of ≥15 mmHg for the corresponding decrease in SBP listed.

Molecules are shown by their SMILES.

In the case of `CC1(c2ccc(F)c(O)c2)C(=O)Nc2nc(-c3cn4ccnc4c(CCC(F)(F)C(F)(F)F)n3)nc(N)c21` (racemic) [Example 115-B, 4-Amino-5-(4-fluoro-3-hydroxyphenyl)-5-methyl-2-(8-(3,3,4,4,4-pentafluorobutyl)-imidazo[1,2-a]pyrazin-6-yl)-5,7-dihydro-6H-pyrrolo[2,3-d]pyrimidin-6-one], the Ki in test [1] was found to be 5.03 nM. On sGC α1/β1 heterodimer, the Emax stood at 79% and the EC50 came to 63 nM. For the same compound, the “Category (decrease in SBP)” value in test [2] (IT dose 0.3 mpk) is listed as “C (decrease in SBP >10 mmHg)”.
Regarding `CC1(c2cc(O)c(Cl)cn2)C(=O)Nc2nc(-c3cn4ccnc4c(Cc4cccc(F)c4)n3)nc(N)c21` (stereo not shown) [Example 51-B, 4-Amino-5-(5-chloro-4-hydroxypyridin-2-yl)-2-{8-[(3-fluorophenyl)methyl]imidazo[1,2-a]pyrazin-6-yl}-5-methyl-5,7-dihydro-6H-pyrrolo[2,3-d]pyrimidin-6-one], in test [1], the Ki is 0.874 nM. For the same compound, on sGC α1/β1 heterodimer, the Emax came out at 88% and the EC50 turned out to be 1020 nM. Besides, the “Category (decrease in SBP)” value in test [2] (IT dose 0.03 mpk) is given as “A (decrease in SBP 0-5 mmHg)”.
`CC1(c2ccc(O)c(F)c2)C(=O)Nc2nc(-c3cn4ccnc4c(CCC(F)(F)C(F)(F)F)n3)nc(N)c21` (racemic) [Example 117-B, 4-Amino-5-(3-fluoro-4-hydroxyphenyl)-5-methyl-2-(8-(3,3,4,4,4-pentafluorobutyl)-imidazo[1,2-a]pyrazin-6-yl)-5,7-dihydro-6H-pyrrolo[2,3-d]pyrimidin-6-one]: the inhibition constant (Ki) in test [1] was 8.55 nM. Besides, at sGC α1/β1 heterodimer, the Emax turned out to be 94% and the EC50 amounted to 109 nM. Moreover, in test [2] (IT dose 0.3 mpk), the “Category (decrease in SBP)” value is “C (decrease in SBP >10 mmHg)”.
Consider `CC1(c2ccc(O)c(F)c2)C(=O)Nc2nc(-c3cn4ccnc4c(Cc4ccc(F)cc4)n3)nc(N)c21` (stereo not shown) [Example 29-B, 4-Amino-5-(3-fluoro-4-hydroxyphenyl)-2-{8-[(4-fluorophenyl)methyl]imidazo[1,2-a]pyrazin-6-yl}-5-methyl-5,7-dihydro-6H-pyrrolo[2,3-d]pyrimidin-6-one], for which the Ki in test [1] came out at 0.291 nM. Besides, at sGC α1/β1 heterodimer, the Emax came out at 80% and the EC50 was determined as 67 nM. Moreover, the “Category (decrease in SBP)” value in test [2] (IT dose 0.03 mpk) is “C (decrease in SBP >10 mmHg)”.
`Cc1cccc(Cc2nc(-c3nc(N)c4c(n3)NC(=O)C4(C)c3ccc(O)c(F)c3)cn3ccnc23)c1` (stereo not shown) [Example 127-B, 4-Amino-5-(3-fluoro-4-hydroxyphenyl)-5-methyl-2-{8-[(3-methylphenyl)-methyl]imidazo[1,2-a]-pyrazin-6-yl}-5,7-dihydro-6H-pyrrolo[2,3-d]-pyrimidin-6-one]: the inhibitory constant (Ki) in test [1] turned out to be 9.72 nM. Besides, on sGC α1/β1 heterodimer, the Emax was found to be 118% and the EC50 is 9980 nM.
In the same order, the values of `CC1(c2ccc(F)c(O)c2)C(=O)Nc2nc(-c3cn4ccnc4c(CCC(F)(F)C(F)(F)F)n3)nc(N3CC(O)(C(F)(F)F)C3)c21` (stereo not shown) [Example 129-B, 5-(4-Fluoro-3-hydroxyphenyl)-4-(3-hydroxy-3-(trifluoromethyl)azetidin-1-yl)-5-methyl-2-(8-(3,3,4,4,4-pentafluorobutyl)imidazo[1,2-a]pyrazin-6-yl)-5,7-dihydro-6H-pyrrolo[2,3-d]pyrimidin-6-one] are 2 nM, 84% and 1890 nM.
In the same order, the values of `CC1(c2ccc(O)cc2)C(=O)Nc2nc(-c3cn4ccnc4c(Cc4ccc(F)cc4)n3)nc(N)c21` (stereo not shown) [Example 43-B, 4-Amino-2-{8-[(4-fluorophenyl)methyl]imidazo[1,2-a]pyrazin-6-yl}-5-(4-hydroxyphenyl)-5-methyl-5,7-dihydro-6H-pyrrolo[2,3-d]pyrimidin-6-one] are 0.457 nM, 101% and 142 nM.
The matching figures for `CC1CCC(Cc2nc(-c3nc(N)c4c(n3)NC(=O)C4(C)c3ccc(O)c(Cl)c3)cn3ccnc23)CC1` (single isomer, unassigned) [Example 120-BA, 4-Amino-5-(3-chloro-4-hydroxyphenyl)-5-methyl-2-{8-[(4-methyl-cyclohexyl)methyl]-imidazo[1,2-a]pyrazin-6-yl}-5,7-dihydro-6H-pyrrolo[2,3-d]pyrimidin-6-one]: 10.9 nM, 133% and 85 nM.
In the case of `CC1(c2cc(O)c(Cl)cn2)C(=O)Nc2nc(-c3cn4ccnc4c(Cc4cc(F)cc(F)c4F)n3)nc(N)c21` (stereo not shown) [Example 103-B, 4-Amino-5-(5-chloro-4-hydroxypyridin-2-yl)-5-methyl-2-{8-[(2,3,5-trifluorophenyl)methyl]imidazo[1,2-a]pyrazin-6-yl}-5,7-dihydro-6H-pyrrolo[2,3-d]pyrimidin-6-one], in test [1], the inhibition constant (Ki) was 0.175 nM. Also, at sGC α1/β1 heterodimer, the Emax was found to be 78% and the EC50 was 231 nM.
On to `CC1(c2cc(Cl)c(O)cn2)C(=O)Nc2nc(-c3cn4ccnc4c(Cc4ccccc4F)n3)nc(N)c21` (single isomer, unassigned) [Example 53-B, 4-Amino-5-(4-chloro-5-hydroxypyridin-2-yl)-2-{8-[(2-fluorophenyl)methyl]imidazo[1,2-a]pyrazin-6-yl}-5-methyl-5,7-dihydro-6H-pyrrolo[2,3-d]pyrimidin-6-one], for which the Ki in test [1] is 1.08 nM. The “% Activation” value at sGC α1/β1 heterodimer (cGMP production as percentage of maximum of compound A (set to 100%)) is on record as 144%. Further, the EC50 at sGC α1/β1 heterodimer was 771 nM.
Regarding `CC1(c2cc(O)c(C(F)(F)F)cn2)C(=O)Nc2nc(-c3cn4ccnc4c(Cc4ccccc4F)n3)nc(N)c21` (stereo not shown) [Example 146-B, 4-amino-2-(8-{2-fluorobenzyl}imidazo-[1,2-a]pyrazin-6-yl)-5-(4-hydroxy-5-(trifluoromethyl)-pyridin-2-yl)-5-methyl-5,7-dihydro-6H-pyrrolo-[2,3-d]pyrimidin-6-one], in test [1], the Ki is 0.378 nM. Besides, at sGC α1/β1 heterodimer, the Emax was determined as 96% and the EC50 came to 2350 nM.
The matching figures for `CC(C)CCc1nc(-c2nc(N)c3c(n2)NC(=O)C3(C)c2ccc(C(F)(F)F)c(O)c2)cn2ccnc12` (stereo not shown) [Example 64-B, 4-Amino-5-(3-hydroxy-4-(trifluoromethyl)phenyl)-2-(8-isopentylimidazo[1,2-a]pyrazin-6-yl)-5-methyl-5,7-dihydro-6H-pyrrolo[2,3-d]pyrimidin-6-one]: 2.22 nM, 125% and 1320 nM.
The matching figures for `CC1(c2cc(O)c(Cl)cn2)C(=O)Nc2nc(-c3cn4ccnc4c(Cc4cc(F)cc(F)c4)n3)nc(N)c21` (stereo not shown) [Example 40-B, 4-Amino-5-(5-chloro-4-hydroxypyridin-2-yl)-2-{8-[(3,5-difluorophenyl)methyl]imidazo[1,2-a]pyrazin-6-yl}-5-methyl-5,7-dihydro-6H-pyrrolo[2,3-d]pyrimidin-6-one]: 0.479 nM, 88% and 368 nM.
In the same order, the values of `Cc1cnc(C2(C)C(=O)Nc3nc(-c4cn5ccnc5c(Cc5cccc(F)c5)n4)nc(N)c32)cc1O` (stereo not shown) [Example 151-A, 4-Amino-2-{8-(3-fluorobenzyl)imidazo[1,2-a]pyrazin-6-yl}-5-(4-hydroxy-5-methylpyridin-2-yl)-5-methyl-5,7-dihydro-6H-pyrrolo[2,3-d]pyrimidin-6-one] are 0.155 nM, 84% and 1790 nM.
